Results from patent publication US8450441B2, “Synthetic N-linked sialo-glycan-containing polymer and method for producing the same” (priority 2007, dated 2013).

Key:
[1] = test system: A/Aichi/2/68 (H3N2); format: cell-based, Influenza A virus (Human strain); settings: for IC50: read-out: HI activity IC50
[2] = test system: A/Duck/HK/313/4/78 (H5N3); format: cell-based, Influenza A virus (Avian strain); settings: read-out: HI activity IC50

Row | Substance | IC50 [1] | IC50 [2] | inhibition activity of human influenza virus infection compared with conventional O-linked sialo-glycan-containing polymer [1] | inhibition activity of human influenza virus infection compared with Poly[Neu5Ac α2-6-LacNAc β-N-(ε-aminocaproyl/γ-PGA] [1]
1 | Poly[N-(ε-aminocaproyl)-β-N-acetyllactosaminylamine/-γ-PGA]] | > 200 nM | > 200 nM |  | 
2 | Poly[N-(ε-aminocaproyl)-β-lacto-N-neotetraosylamine/-γ-PGA]] | > 200 nM | > 200 nM |  | 
3 | Poly[N-(ε-aminocaproyl)-β-lactosylamine/-γ-PGA]] | > 200 nM | > 200 nM |  | 
4 | Poly[Neu5Ac α2-3-N-acetyllactosaminylamine β-N-(ε-aminocaproyl)/γ-PGA] | 37.5 nM | 37.5 nM |  | 
5 | Poly[Neu5Ac α2-3lacto-N-neotetraosylamine β-N-(ε-aminocaproyl)/γ-PGA] | 18.8 nM | 37.5 nM |  | 
6 | Poly[Neu5Ac α2-3lactosylamine β-N-(ε-aminocaproyl)/γ-PGA] | 37.5 nM | 37.5 nM |  | 
7 | Poly[Neu5Ac α2-6-N-acetyllactosaminylamine β-N-(ε-aminocaproyl)/γ-PGA] | 1.2 nM | > 200 nM | many times greater | 
8 | Poly[Neu5Ac α2-6-lacto-N-neotetraosylamine β-N-(ε-aminocaproyl)/γ-PGA] | 0.29 nM | > 200 nM |  | many more times greater
9 | Poly[Neu5Ac α2-6lactosylamine β-N-(ε-aminocaproyl)/γ-PGA] | 4.7 nM | > 200 nM |  | 
